Source: patent US20240226120A1 (priority 2020, published 2024)
“And” between values parts separate entries of the source, which are not always exact repeats. Identical values can stand only once.

How the values were obtained:
[1] = tested on: HEK293 (human embryonic kidney) cells expressing the viral Orf10 protein; assay type: cell-based
[2] = tested on: HEK293 (human embryonic kidney) cells transfected with plasmid expressing viral protein ORF8; test: Apoptosis assay (pSIVA early, propidium iodide late), ORF8; assay type: cell-based; conditions: ORF8, 24 hours
Excerpt: (§1) 2. […] These transfections are done in duplicate.

[3] = tested on: interferon and interferon-induced antiviral effector gene expression in cells expressing M-protein; test: qPCR of interferons and effector gene expression, M-protein; assay type: cell-based, human
[4] = tested on: HEK293 (human embryonic kidney) cells transfected with control plasmid pCMV-3Tag-3A; test: Apoptosis assay (pSIVA early, propidium iodide late), control plasmid; assay type: cell-based; conditions: 24 hours, normalized to crystal violet
Excerpt: as §1

[5] = tested on: Type I interferons; test: Interferon types after CBD treatment, summary over transfections; assay type: cell-based, human; conditions: summary statement, transfection not specified
[6] = tested on: HEK293 (human embryonic kidney) cells transfected with plasmid expressing M protein; test: Apoptosis assay (pSIVA early, propidium iodide late), M protein; assay type: cell-based
Excerpt: as §1

[7] = tested on: normal cells; test: Inhouse work on cell death, normal cells (unpublished data); assay type: cell-based
[8] = tested on: HT22 hippocampal neurons; conditions: 5 μM CBD, oxygen-glucose deprivation; cited from earlier work
[9] = tested on: HEK293 (human embryonic kidney) cells expressing the viral Orf8 protein; assay type: cell-based
[10] = tested on: HEK293 (human embryonic kidney) cells expressing the viral M protein; test: BrdU incorporation colorimetric ELISA, cells expressing viral M protein; assay type: cell-based; conditions: 1 μM, 24 hours, not normalized to cell number (FIG. 5)
[11] = molecular target: CB2 receptor (Homo sapiens, UniProt P34972); conditions: cited from earlier work
[12] = tested on: metabolically dysregulated cells; test: Inhouse work on cell death, metabolically dysregulated cells (unpublished data); assay type: cell-based
[13] = tested on: TNFα, IL-6, IL-4, IL-13, IL-10, and IL-5; conditions: asthma induced animals treated with Cannabidiol vs asthma induced animals; cited from earlier work

CB2 receptor, sequence (P34972 whole entry): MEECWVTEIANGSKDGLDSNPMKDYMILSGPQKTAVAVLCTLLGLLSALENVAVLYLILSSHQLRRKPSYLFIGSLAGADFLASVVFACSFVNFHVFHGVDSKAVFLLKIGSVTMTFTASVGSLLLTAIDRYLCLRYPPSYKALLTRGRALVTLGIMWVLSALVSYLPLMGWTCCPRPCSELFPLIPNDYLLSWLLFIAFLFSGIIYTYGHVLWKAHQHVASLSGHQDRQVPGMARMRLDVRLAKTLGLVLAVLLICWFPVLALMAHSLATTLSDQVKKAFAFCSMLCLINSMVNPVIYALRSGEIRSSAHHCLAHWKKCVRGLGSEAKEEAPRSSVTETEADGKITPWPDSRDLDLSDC

CCCc1cc(O)c2c(c1)OC(C)(C)[C@@H]1CC=C(C)C[C@@H]21 [delta 8-tetrahydrocannabivarin]
BrdU incorporation relative to untreated cells [1]: less reduction

C=C(C)[C@@H]1CCC(C)=C[C@H]1c1c(O)cc(CCCCC)cc1O [Cannabidiol, 2-[(1R,6R)-3-Methyl-6-(1-methylethenyl)-2-cyclohexen-1-yl]-5-pentyl-1,3-benzenediol]
early apoptosis (pSIVA) ([2]; vs vehicle-treated ORF8 cells and vs Cannabidiol-treated control vector cells (FIG. 8A)): significant increases
late apoptosis (propidium iodide) ([2]; vs vehicle-treated ORF8 cells and vs Cannabidiol-treated control vector cells (FIG. 8B)): significant increases
OAS1 gene expression ([3]; M protein, 1 μM CBD vs vehicle-treated cells, 24 hours (FIG. 18)): significantly greater expression
INF-lambda 1 expression ([3]; M-protein, 1 μM CBD, 24 hours (FIG. 16A)): induced
INF-lambda 2/3 expression ([3]; M-protein, 1 μM CBD, 24 hours (FIG. 16B)): induced
IFIT1 augmentation compared with cells expressing control plasmid ([3]; M-protein, 1 μM CBD, 24 hours (FIG. 19)): lower
Mx1 gene expression ([3]; M-protein, 1 μM CBD, 24 hours, vs Cannabidiol-treated cells expressing only control plasmid (FIG. 17)): significantly greater extent
early apoptosis (pSIVA) [4]: do not show any significant increase
late apoptosis (propidium iodide) [4]: do not show any significant increase
early apoptosis (pSIVA) ([4]; listed as CBD): did not alter
late apoptosis (propidium iodide) ([4]; listed as CBD): did not alter
change in Type I interferons as a result of CBD treatment [5]: not much change
early apoptosis (pSIVA) ([6]; relative to M protein cells treated only with vehicle (FIG. 15A)): significantly elevated
late apoptosis (propidium iodide) ([6]; relative to M protein cells treated only with vehicle (FIG. 15B)): significantly elevated
cell death [7]: no effect
apoptosis and oxidative stress [8]: significantly attenuated
mean BrdU incorporation lower than in cells expressing Orf8 but untreated with cannabinoids [9]: 37.28% and 43.52%
mean BrdU incorporation lower than in cells expressing M protein but untreated with cannabinoids [10]: 37.28%
binding to CB2 receptor [11]: very weakly
cell death [12]: decreases cell death
mean BrdU incorporation lower than in cells expressing Orf10 but untreated with cannabinoids [1]: 30.44%
levels of all cytokines (TNFα, IL-6, IL-4, IL-13, IL-10, IL-5) [13]: reduced significantly
